Data taken from patent US9840494B2, “Quinazoline derivative” (Tianjin Hemay Oncology Pharmaceutical Co., Ltd., priority 2013, dated 2017).
Where two headings read alike, the source gives them in different places. Marks after values point to notes of the source that are not given here.

How the values were obtained:
[1] = test system: human epidermoid carcinoma cell line A431; test: In vitro inhibitory action on human tumor cells, A431 (MTT); assay type: cell-based; conditions: MTT assay, usually 3 days, read-out: Inhibitory activity on human epidermoid cancer cell line A431 (IC50)
Experimental: (§1) Human epidermoid carcinoma cell line A431, human non-small cell lung cancer cell line HCC827, head and neck cancer cell lines Fadu and human pancreatic cancer cell line AsPC-1 were purchased from Cell Bank, Chinese Academy of Sciences.
(§2) 3.2 Cell culture method: cells were cultured in the complete medium at 37° C. under 5% CO2 and saturated humidity until logarithmic growth phase, i.e., adherent cells substantially approach complete confluence, and then collected for subsequent assay. For the adherent cells, they were firstly digested with trypsin/EDTA to detach.
(§3) 3.3 A certain number of cells were seeded into 96-well cell culture plates (hereinafter referred to as 96-well plates). […] Finally, total cellular protein in the wells was determined using SRB assay, or cell viability was determined with MTT assay.
(§4) 3.3.1 The cell seeding concentration was determined by cell growth curve assay which completely simulates compound inhibition assay process. […]
(§5) 3.4 Dilution and addition of compounds: the concentration of DMSO that can be tolerant by the cells was determined by DMSO tolerance assay, and thereby selecting the dilution and addition methods of compounds. The effects of different concentrations of DMSO on cell growth were determined by DMSO tolerance assay. […] Two methods are finally determined as follows. […]

[2] = test system: human non-small cell lung cancer cell line HCC827; test: In vitro inhibitory action on human tumor cells, HCC827 (SRB); assay type: cell-based; conditions: SRB assay, usually 3 days
Experimental: as §1, §2, §3, §4, §5

[3] = test system: FaDu human head and neck cancer xenograft; test: FaDu human head and neck cancer xenograft model; assay type: in vivo, nude mice; conditions: for Tumor Weight (x ± S.D.) / Tumor Inhibitor Rate / Relative Tumor Volume (x ± S.D.) / T/C / Tumor Volume (x ± S.D.): FaDu xenograft; for Tumor Inhibitor Rate: by tumor weight; for Relative Tumor Volume (x ± S.D.) / T/C / Tumor Volume (x ± S.D.): end of the assay
Experimental: Tumor cells were cultured in an incubator at 37° C. with 5% CO2 using MEM medium containing 10% inactivated fetal calf serum, 100 U/ml penicillin and 100 μg/ml streptomycin. The tumor cells in logarithmic growth phase were collected, adjusted to an appropriate density and injected subcutaneously into nude mice (0.2 ml per mouse). An xenograft model was established after tumor was formed in the nude mice and passaged in vivo for more than three generations.
The above-mentioned tumor-bearing mice were sacrificed by cervical dislocation. The tumor was taken out and cut into small tumor pieces (about 2 mm×2 mm×2 mm) under sterile conditions. The small tumor pieces were inoculated subcutaneously into nude mice on the right shoulder blade with a trocar. […] The animals in each group were subjected to intragastric administration daily for 14 consecutive days. The day of grouping is assigned as day 0.
Tumor volume is calculated as: volume=0.5×long diameter×short diameter^2. The relative tumor volume (RTV) was calculated based on the measurements as: RTV=Vt/V0, wherein V0 is the tumor volume measured when the animals were grouped to be administrated (i.e., d0), and Vt is the tumor volume when each measurement was taken. Relative tumor proliferation rate T/C was calculated based on relative tumor volume, in which T is the mean value of the relative tumor volume of the treatment group, and C is the mean value of the relative tumor volume of the solvent control group. T/C was calculated as follows: T/C=TRTV/CRTV×100% (TRTV: RTV of the treatment group; CRTV: RTV of the solvent control group) Inhibition rate (%)=(mean tumor weight of the solvent control group−mean tumor weight of the treatment group)/mean tumor weight of the solvent control group×100%. Percentage of body weight change=Wn/W0×100% (Wn: mean body weight of experimental animals in each group at day n, W0: mean body weight of experimental animals in each group at day 0).
One-Way ANOVA test was conducted in SPSS13.0, performing statistical analysis between groups.

[4] = FaDu xenograft nude mice, 20, 40 and 80 mg/kg intragastric daily for 14 days
[5] = 20 mg/kg intragastric daily for 14 days
[6] = 40 mg/kg intragastric daily for 14 days
[7] = 80 mg/kg intragastric daily for 14 days

Which results are given for COCCOc1cc2ncnc(Nc3ccc(F)c(Cl)c3)c2cc1NC(=O)C=C1CCN(CCOC)CC1.CS(=O)(=O)O [Compound 3, N-[4-(3-chloro-4-fluorophenylamino)-7-(2-methoxyethoxy)quinazolin-6-yl]-2-[1-(2-methoxyethyl)piperidin-4-ylidene]acetamide dimethylsulfonate]?
IC50 [1]: 138 nM; IC50 [2]: 10 nM; Body weights of the experimental animals [3, 4]: not significantly reduced; abnormality in the experimental animals [3, 4]: no significant abnormality was observed; Tumor Weight (x ± S.D.) [3, 5]: 0.684 ± 0.192 g; Tumor Inhibitor Rate [3, 5]: 37.5%; Relative Tumor Volume (x ± S.D.) [3, 5]: 6.1 ± 1.3; T/C [3, 5]: 61.4%; Tumor Volume (x ± S.D.) [3, 5]: 703.3 ± 144.2** mm^3; Tumor Weight (x ± S.D.) [3, 6]: 0.522 ± 0.427 g; Tumor Inhibitor Rate [3, 6]: 52.4%; Relative Tumor Volume (x ± S.D.) [3, 6]: 5.5 ± 1.9; T/C [3, 6]: 54.7%; Tumor Volume (x ± S.D.) [3, 6]: 602.9 ± 204.4*** mm^3; Tumor Weight (x ± S.D.) [3, 7]: 0.260 ± 0.128 g; Tumor Inhibitor Rate [3, 7]: 76.2%; Relative Tumor Volume (x ± S.D.) [3, 7]: 3.2 ± 1.6; T/C [3, 7]: 31.6%; Tumor Volume (x ± S.D.) [3, 7]: 352.3 ± 157.0*** mm^3

With COCCOc1cc2ncnc(Nc3ccc(F)c(Cl)c3)c2cc1NC(=O)C=C1CCN(CCOC)CC1 [Compound 1, N-[4-(3-chloro-4-fluorophenylamino)-7-(2-methoxyethoxy)quinazolin-6-yl]-2-[1-(2-methoxyethyl)piperidin-4-ylidene]acetamide] as the compound, how does the IC50 ([1]; Homo sapiens, A-431, 72 h) read?
The IC50 was 125 nM.

What about the IC50 ([2]; Homo sapiens, HCC827, 72 h) of the same compound?
Its IC50 is 8 nM.
